Measurements from patent publication US6903085B1, “Substituted piperidine compounds useful as modulators of chemokine receptor activity” (AstraZeneca, AB, priority 1999, dated 2005).
Counter-ions that a name gives are not always drawn.

In the case of `O=C(Cc1ccc(F)cc1)NC1CCN(Cc2ccc(Cl)c(Cl)c2)CC1` [Example 99, N-[1-(3,4-Dichlorobenzyl)-4-piperidinyl]-2-(4-fluorophenyl)acetamide], the melting point is reported as 144 to 147 °C. For `COc1ccc(CNC2CCN(Cc3ccc(Cl)c(Cl)c3)CC2)cc1` (as salt: hydrochloride) [Example 107, N-[1-(3,4-Dichlorobenzyl)-4-piperidinyl]-N-(4-methoxybenzyl)amine, dihydrochloride Salt], the melting point was over 250 °C. In the case of `COc1cccc(NC(=O)CNC2CCN(Cc3ccc(Cl)c(Cl)c3)CC2)c1` (as salt: hydrochloride) [Example 104, 2-{[1-(3,4-Dichlorobenzyl)-4-piperidinyl]amino}-N-(3-methoxyphenyl)acetamide, dihydrochloride Salt], the melting point is reported as 274 to 276 °C. Work on `O=C(CSc1ccccc1)NC1CCN(Cc2ccc(Cl)c(Cl)c2)CC1` [Example 98] yielded a melting point of 97 to 99 °C. Work on `COc1cccc(NC(=O)NC2CCN(Cc3ccc(Cl)c(Cl)c3)CC2)c1` [Example 106, N-[1-(3,4-Dichlorobenzyyl)-4-piperidinyl]-N′-(3-methoxyphenyl)urea] yielded a melting point of 178 to 179 °C. With `Cc1sc(-c2ccc(Cl)cc2)nc1CC(=O)NC1CCN(Cc2ccc(Cl)c(Cl)c2)CC1` [Example 97, 2-[2-(4-Chlorophenyl)-5-methyl-1,3-thiazol-4-yl]-N-[1-(3,4-dichlorobenzyl)-4-piperidinyl]acetamide] the melting point was 170 °C. With `O=C(CCCC(=O)c1ccccc1)NC1CCN(Cc2ccc(Cl)c(Cl)c2)CC1` [Example 96, N-[1-(3,4-Dichlorobenzyl)-4-piperidinyl]-5-oxo-5-phenylpentanamide] the melting point was 130 °C. `O=C(Cc1csc(-c2cnccn2)n1)NC1CCN(Cc2ccc(Cl)c(Cl)c2)CC1` [Example 100, N-[1-(3,4-Dichlorobenzyl)-4-piperidinyl]-2-[2-(2-pyrazinyl)-1,3-thiazol-4-yl]acetamide] showed a melting point of 186 to 189 °C. With `O=C(CCc1nc(-c2ccccn2)no1)NC1CCN(Cc2ccc(F)c(Cl)c2)CC1` [Example 362, N-[1-(3-Chloro-4-fluorobenzyl)-4-piperidinyl]-3-[3-(2-pyridinyl)-1,2,4-oxadiazol-5-yl]propanamide] the melting point was 150 °C. `Cc1c(CC(=O)NC2CCN(Cc3ccc(Cl)c(Cl)c3)CC2)cnn1-c1ccccc1` [Example 95, N-[1-(3,4-Dichlorobenzyl)-4-piperidinyl]-2-(5-methyl-1-phenyl-1H-pyrazol-4-yl)acetamide] gave a melting point of 165 °C. In the case of `Clc1ccc(CN2CCC(Nc3nc4ccccc4[nH]3)CC2)cc1Cl` [Example 103, N-[1-(3,4-Dichlorobenzyl)-4-piperidinyl]-1H-benzimidazol-2-amine], the melting point is reported as 125 °C. Work on `O=C(CSc1ccc(C(F)(F)F)cn1)NC1CCN(Cc2ccc(Cl)c(Cl)c2)CC1` [Example 94, N-[1-(3,4-Dichlorobenzyl)-4-piperidinyl]-2-{[5-(trifluoromethyl)-2-pyridinyl]sulfanyl}acetamide] yielded a melting point of 98 °C. With `O=C(Nc1ccc(Cl)c(Cl)c1)NC1CCN(Cc2ccc(Cl)c(Cl)c2)CC1` [Example 105, N-[1-(3,4-Dichlorobenzyl)-4-piperidinyl]-N′-(3,4-dichlorophenyl)urea] the melting point was 189 to 190 °C. For `O=C(Cc1nc(-c2ccccn2)no1)NC1CCN(Cc2ccc(Cl)c(Cl)c2)CC1` [Example 359, N-[1-(3,4-Dichlorobenzyl)-4-piperidinyl]-2-[3-(2-pyridinyl)-1,2,4-oxadiazol-5-yl]acetamide], the melting point was 145 °C. In the case of `O=C(CCc1nc(-c2ccccn2)no1)NC1CCN(Cc2ccc(Cl)c(Cl)c2)CC1` [Example 102, N-[1-(3,4-Dichlorobenzyl)-4-piperidinyl]-3-[3-(2-pyridinyl)-1,2,4-oxadiazol-5-yl]propanamide], the melting point is reported as 155 °C. `O=C(CCc1nc(-c2ccccn2)no1)NC1CCN(Cc2ccc(Cl)c(F)c2)CC1` [Example 363, N-[1-(4-Chloro-3-fluorobenzyl)-4-piperidinyl]-3-[3-(2-pyridinyl)-1,2,4-oxadiazol-5-yl]propanamide] showed a melting point of 132 °C. For `O=C(CSc1ncc(-c2ccccc2)cn1)NC1CCN(Cc2ccc(Cl)c(Cl)c2)CC1` [Example 101, N-[1-(3,4-Dichlorobenzyl)-4-piperidinyl]-2-[(5-phenyl-2-pyrimidinyl)sulfanyl]acetamide], the melting point was 157 °C.
